{"source": "patent US20250213593A1", "about": "“Use of Derivatives based on Sarsasapogenin Structure and Pharmaceutical Compositions thereof” (BEIJING PHYTOVENT PHARMACEUTICAL TECHNOLOGY CO., LTD., priority 2022, published 2025)", "key": {"[1]": {"test_system": "rats with ulcerative colitis induced by TNBS", "assay": "TNBS rats enteritis model", "format": "in vivo, rat", "conditions": "80 mpk oral gavage once a day, 7 days", "experimental": "All rats except the normal control group were fasted for solids (not liquids) for 24 h. After being anesthetized with isoflurane, the rats were transrectally infused with a TNBS ethanol solution (18 mg TNBS/mouse) at 0.5 mL/mouse through a latex hose, the length of the hose into the rectum was about 8 cm, an anesthesia state was continued after the hose was withdrawn, and the rats were kept in an inclined state for 15 min. The rats in the normal control group were not stimulated with rectal cannula. After the animals were awake, they were randomly divided into groups, which then began to be administrated with drugs (marked as D1). The blank group and the model group were administrated with the same amount of vehicle by oral gavage once a day for 7 consecutive days (D1-D7). The animal's status and feces (loose stools or bloody stools) were observed every day. The body weights were monitored. On the next day after the last administration (D8), the animals were deeply anesthetized with CO2, sacrificed and dissected. The entire colon tissues were harvested. The colon content was washed with normal saline after dissection along the mesenteric side. The body weights were measured and the colon lengths were measured. A ulcer surface was measured by Image J software. The general conditions of the colons were observed and photographed. Some of diseased tissues were fixed with formalin, and subjected to histopathological observation by HE staining. • Results: (1) the effects on general conditions of TNBS colitis mice were shown in FIG. 46a: the rats had loose stool on the next day of TNBS modeling; and the modeled mice had symptoms of reduced diet, tiredness, emaciation, erect hair, and dull hair. The feces of some rats were improved in the later stage of administration, but some rats still maintained loose stool until the end of the experiment, and some rats had obvious abdominal distension in the later stage of the experiment."}, "[2]": {"test_system": "transgenic AD rat model (human APP mutant protein, SD rats)", "assay": "T-maze test of AD rats", "format": "in vivo", "conditions": "model vs administration group", "experimental": "The T-maze test had four stages: I. in an acclimatization stage, food was placed in both arms, and valves on both arms were opened. Each rat was trained twice. All rats entered the next stage after they had eaten the food on both sides within 5 min twice. II. In a forced training stage, a valve on one side was closed first, and the rats were allowed to eat the food on the opposite side. A valve on the opposite side was closed again, and the rats were allowed to eat the food on the other side. This was a training process. Each animal was trained 4 times a day for 3 days. III.\nIn an optional training stage, the valve on one side was closed in half first, and the rats were allowed to eat the food on the opposite side. All the valves were then closed. If the rats went to the other side, they could finish eating the food there. If the rats went to the same side, there was no food here, and they were closed on this side for 30 s. This was a training process. Each animal was trained 4 times a day until the accuracy rate exceeded 75% for 2 consecutive days and proceeded to the next stage. IV.\nIn a delayed optional test stage, it was basically the same as the operation of the III stage, except that interval time was added after the forced training stage and before the optional training stage. The interval time was set to 1.5 min, 3 min, and 10 min. Test was performed for 4 times at each time."}, "[3]": {"test_system": "hippocampal neurons", "assay": "L-cysteine-induced neuronal excitotoxicity", "format": "cell-based, SD rats", "conditions": "compound 1 μM, 24 h before inducer", "how_it_was_run": "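Primary E18-19 SD rat hippocampal neurons at DIV19 pretreated 24 h with compound (final 1 μM; AP5 100 μM positive control, DMSO negative), then exposed to L-cystine 400 μM plus NaHCO3 10 mM for 18 h. Hoechst staining; total and dead neurons counted in 6 random fields per well.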"}, "[4]": {"test_system": "APOE−/− mutant B6J mice", "assay": "Cardiovascular inflammation of APOE mutant mice fed with high-fat diets", "format": "in vivo, mouse", "conditions": "oral gavage once every 2 days, high-fat diets 16 weeks", "description": "Experimental and analytical method: 6-week-old male APOE−/− mutant B6J mice and WT B6J mice were purchased and acclimatized in a feeding room for 2 weeks. When the mice were 8 weeks old, except for a Vehicle group and a WT group, the rest of the groups were given high-fat diets (Research Diets, D12492). When the mice were 9 weeks old, the Control group was given a 10% cyclodextrin solution, while the rest of the administration groups began to be grouped and administrated with different small molecule compounds (Embodiment 13B, Embodiment 33, Embodiment 36 and Embodiment 37) by oral gavage, at a frequency of once every 2 days. After being fed with high-fat diets for 16 weeks, the APOE mice were sacrificed and aortic arches were taken and dissected."}}}
{"smiles": "C[C@H]1CC[C@@]2(OC1)O[C@H]1C[C@@H]3[C@H](CC[C@H]4[C@H]3CC[C@@H]3C[C@H](NC(=O)CC(=O)N5CCN(CCN(C)C)CC5)CC[C@@]34C)[C@H]1[C@@H]2C", "note": "[Embodiment 13b]", "values": [{"measurement": "colon ulcer area", "setting": "[1]", "result": "more significant"}, {"measurement": "colon weight per unit length (colon weight/colon length)", "setting": "[1]", "result": "more significant"}, {"measurement": "working memory in delayed optional T-maze test", "setting": "[2]; interval 1.5 min, administered from 7 to 15 months of age", "result": "no significant difference"}, {"measurement": "working memory in delayed optional T-maze test", "setting": "[2]; interval 3 min", "result": "no significant difference"}, {"measurement": "working memory in delayed optional T-maze test", "setting": "[2]; interval 10 min", "result": "working memory of the administration group also persisted"}, {"measurement": "protective effects on L-Cystine (400 μM)-induced neuronal excitotoxicity", "setting": "[3]", "result": "protective effects"}, {"measurement": "inflammatory factors IL10, IL-1β and KC/GRO in aortic vascular epithelial tissue", "setting": "[4]", "result": "most significant"}]}
